{"source": "paper PMC3145338", "about": "(Journal of the American Chemical Society, 2011)", "origin": "cited, not measured here", "settings": "BCA; for Kd: read-out: Kd^surf", "key": {"[1]": {"settings": "SAM ligand 2, χ = 0.05, ref [Mrskich, 1995]"}, "[2]": {"settings": "SAM ligand 2, ref [Lahiri, 1999a]"}, "[3]": {"settings": "SAM ligand 2, ref [Lahiri, 1999b]"}}, "note": "Like-named read-outs stand apart in the source and are kept apart here. Marks after values point to notes of the source that are not given here."}
{"substance": "BCA: bovine carbonic anhydrase", "values": [{"measurement": "koff^surf", "setting": "[1]", "result": "5.4 ^e 10^−3 s^−1"}, {"measurement": "kon^surf", "setting": "[1]", "result": "1.9 ^e 10^4 M^−1 s^−1"}, {"measurement": "ΔG°surf", "setting": "[1]", "result": "−9.0 ^e kcal mol^−1"}, {"measurement": "koff^surf", "setting": "[2]", "result": "5.3 ^e 10^−3 s^−1"}, {"measurement": "kon^surf", "setting": "[2]", "result": "3.5 ^e 10^4 M^−1 s^−1"}, {"measurement": "ΔG°surf", "setting": "[2]", "result": "−9.3 ^e kcal mol^−1"}, {"measurement": "koff^surf", "setting": "[3]", "result": "5.4 ^e 10^−3 s^−1"}, {"measurement": "kon^surf", "setting": "[3]", "result": "0.9 ^e 10^4 M^−1 s^−1"}, {"measurement": "ΔG°surf", "setting": "[3]", "result": "−8.5 ^e kcal mol^−1"}, {"measurement": "koff^surf", "setting": "mixed SAMs χ = 0.05, ref Mrksich et al. [10]", "result": 0.0054, "unit": "s⁻¹"}, {"measurement": "Kd", "setting": "[1]", "result": 260, "unit": "nM"}, {"measurement": "Kd", "setting": "[2]", "result": 150, "unit": "nM"}, {"measurement": "Kd", "setting": "[3]", "result": 560, "unit": "nM"}]}
